Measured values: US6521623B1, “N,N'-disubstituted benzimidazolone derivatives with affinity at the serotonin and dopamine receptors” (Boehringer Ingelheim Pharma KG, priority 2000, dated 2003)

How the values were obtained:
5-HT2A [1] = biological target: T1, 5-HT2A (Rattus norvegicus, UniProt P14842); test: 5-HT2A Radioligand Receptor Binding Assay ([3H]-Ketanserin, cerebral frontal cortex membranes); conditions: 0.5 nM [3H]-Ketanserin
T1 construct: Cerebral frontal cortex was homogenized in 10 volumes of ice cold 0.32 M sucrose; from tissue; host or cells: rat cerebral frontal cortex membranes
T1 sequence (P14842 whole entry): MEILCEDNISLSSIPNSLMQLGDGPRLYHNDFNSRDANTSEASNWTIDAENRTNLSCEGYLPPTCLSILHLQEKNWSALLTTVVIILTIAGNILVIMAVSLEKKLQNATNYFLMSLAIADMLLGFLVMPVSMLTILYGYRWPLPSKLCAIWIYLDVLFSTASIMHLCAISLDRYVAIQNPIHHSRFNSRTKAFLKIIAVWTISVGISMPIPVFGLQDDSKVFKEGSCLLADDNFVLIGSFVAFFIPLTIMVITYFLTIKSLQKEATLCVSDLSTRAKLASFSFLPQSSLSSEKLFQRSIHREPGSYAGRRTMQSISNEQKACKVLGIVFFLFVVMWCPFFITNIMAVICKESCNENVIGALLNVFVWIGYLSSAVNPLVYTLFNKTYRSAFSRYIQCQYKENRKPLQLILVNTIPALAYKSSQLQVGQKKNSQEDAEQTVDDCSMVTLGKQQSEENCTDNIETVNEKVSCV
Description: 5-HT2A Radioligand Receptor Binding Assay
Rats (male Sprague-Dawley, 200-250 g) were used. Cerebral frontal cortex was homogenized in 10 volumes of ice cold 0.32 M sucrose in 5 mM Tris-HCl ([…]) buffer. After centrifugation of the homogenate (1,000×g for 10 minutes) the supernatant was then recentrifuged at 48,000×g for 15 minutes. The resulting pellet was gently homogenized in an equal volume of 50 mM Tris-HCl buffer (pH 7.4) and incubated at 37° C. for 10 minutes. Membranes were then collected by centrifugation as above described and finally resuspended in 10 volumes of 50 mM Tris-HCl buffer (pH 7.4).
For displacement experiments membranes (980 μl) were diluted in 50 mM Tris-HCl buffer (pH 7.4) to a final concentration of 1:100 (w/v); the tissue suspension was then incubated at 37° C. for 10 minutes in a final volume of 1 ml in the presence of 0.5 nM [^3H]-Ketanserin. Non-specific binding was determined by incubating similar samples with unlabelled methysergide (100 μM). After incubation, samples prepared in a 24 wells cell culture cluster (Costar) were rapidly filtered by Inotech Cell Harvester (IH 201 filters). The filters were washed three times with 2 ml ice-cold Tris-HCl buffer and placed in polyethylene vials, then 4 ml of Filter Count scintillation cocktail (Packard) were added. The radioactivity present was counted by liquid scintillation spectrometry.
The affinity values (IC50) for the compounds were obtained by a nonlinear least squares regression analysis on the basis of a one binding site model.

5-HT2A [2] = biological target: 5-HT2A (Mus musculus, UniProt P35363); test: 5-HT2 Functional Assay (PI Turnover) in cerebral cortex miniprisms; type: biochemical; conditions: 10 μM compound, inhibition of PI turnover accumulation induced by 100 μM 5-HT
Chain of 5-HT2A (Mus musculus, UniProt P35363) (P35363 whole entry, looked up): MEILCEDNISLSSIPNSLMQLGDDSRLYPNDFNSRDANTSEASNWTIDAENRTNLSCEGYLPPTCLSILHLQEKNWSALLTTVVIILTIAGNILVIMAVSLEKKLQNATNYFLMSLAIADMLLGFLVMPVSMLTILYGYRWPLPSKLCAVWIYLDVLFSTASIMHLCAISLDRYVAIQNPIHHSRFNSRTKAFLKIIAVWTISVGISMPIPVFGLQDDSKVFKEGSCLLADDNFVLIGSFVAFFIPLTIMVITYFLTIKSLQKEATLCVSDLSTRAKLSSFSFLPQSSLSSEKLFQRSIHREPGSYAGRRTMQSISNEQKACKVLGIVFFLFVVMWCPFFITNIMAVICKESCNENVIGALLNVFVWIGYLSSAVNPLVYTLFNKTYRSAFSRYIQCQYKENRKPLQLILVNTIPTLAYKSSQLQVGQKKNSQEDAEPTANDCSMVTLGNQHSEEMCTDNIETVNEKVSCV
Description: 5-H T2 Functional Assay (PI Turnover)
Cross-chopped miniprisms (350×350 μm) were prepared from mouse whole cerebral cortices and incubated for 60 minutes at 37° C. in Krebs-Henseleit buffer containing 2 g/l glucose.
Cerebral cortex miniprisms were distributed in vials and incubated for 30 minutes with approximately 170 nM [^3H]-myoinositol (10-20 Ci/mmol) and […] lithium chloride. Samples were divided in different groups in triplicate: control, 100 μM 5-HT, 10 and 30 μM flibanserin+100 μM 5-HT, as standards, and 10 μM of the different compound under investigation+100 μM 5-HT. When 5-HT was added the incubation continued for 45 minutes. Compounds under investigation and flibanserin were added 10 minutes before dispensing 5-HT. Incubation was terminated by the addition of 940 μl chloroform-methanol (1:2 v/v). Further aliquots of chloroform (310 μl) and water (310 μl) were added and labeled inositol phosphates (1 Ps) were extracted from the aqueous phase by ion exchange chromatography using Dowex resin in the formate form. After addition of 10 ml of PicoFluor 40 scintillation cocktail (Packard), the radioactivity present in an aliquot (400 μl) of the aqueous extract was counted by liquid scintillation spectrometry.

D4 human receptors = biological target: T2, D4 human receptors (Homo sapiens, UniProt P21917); test: D4 Radioligand Receptor Binding Assay ([3H] YM-09151-2, CHO cell membranes); conditions: compound 10^−7 M, singlicate, [3H] YM-09151-2 0.15-0.25 nM
T2 construct: expressed in transfected cells; host or cells: CHO cells
T2 sequence (P21917 1-419): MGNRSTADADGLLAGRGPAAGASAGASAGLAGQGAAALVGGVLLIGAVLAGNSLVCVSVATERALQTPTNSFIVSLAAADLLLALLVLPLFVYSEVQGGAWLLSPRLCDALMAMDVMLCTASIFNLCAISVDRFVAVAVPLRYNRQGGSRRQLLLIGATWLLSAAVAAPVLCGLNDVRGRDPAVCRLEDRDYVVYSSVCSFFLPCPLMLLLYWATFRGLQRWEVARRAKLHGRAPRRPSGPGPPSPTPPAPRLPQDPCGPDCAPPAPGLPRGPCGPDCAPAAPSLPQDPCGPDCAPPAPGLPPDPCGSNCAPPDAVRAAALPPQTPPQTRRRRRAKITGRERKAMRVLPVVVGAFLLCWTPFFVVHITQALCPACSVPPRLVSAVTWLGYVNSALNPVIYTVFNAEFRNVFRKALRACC
In short: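 Membranes from CHO cells expressing human D4 receptor incubated with [3H] YM-09151-2 (0.15-0.25 nM) and compound at one concentration (10^−7 M, singlicate) for 120 min at 27° C, then filtered.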

Compound: CCNC(=O)OCCn1c(=O)n(CCN2CCN(c3cccc(C)c3C)CC2)c2ccccc21 [Compound 215]
- IC50 (5-HT2A [1]): 3.2 nM
- 5-HT2A PI Turnover % inhibition (5-HT2A [2]): 83%
- inhibition at 0.1 µM (D4 human receptors): 48%
